Measurements taken from ChEMBL document CHEMBL1201862, “PubChem BioAssay data set” (2004).
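All cell lines were grown in 96-well plates and treated with compound for 48 hours. GI50 is the concentration that inhibits growth by half.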 Active and inactive are the calls of the source. Rule as the data show it: active = GI50 up to about 1.1 µM and inactive = higher.

What was measured:
Experiment in all cases: inhibition of tumour cell growth, NCI panel, 48 h
[1] = test system: CCRF-CEM
[2] = test system: DU-145
[3] = test system: HL-60
[4] = test system: IGROV-1
[5] = test system: K562
[6] = test system: M14
[7] = test system: MDA-N
[8] = test system: NCI/ADR-RES
[9] = test system: OVCAR-4
[10] = test system: OVCAR-8
[11] = test system: RPMI-8226
[12] = test system: SK-MEL-2
[13] = test system: SNB-19
[14] = test system: SR
[15] = test system: T47D
[16] = test system: TK-10
[17] = test system: UACC-62
[18] = test system: KM12
[19] = test system: SF-539

Measured: GI50

O=c1c(Cc2c(O)ccc3ccccc23)nnc2sc(-c3nn4c(=O)c(Cc5c(O)ccc6ccccc56)nnc4s3)nn12
inactive: [1] 30.5 µM | [2] > 100 µM | [3] 30.8 µM | [4] > 100 µM | [5] > 100 µM | [6] > 100 µM | [7] > 100 µM | [8] > 100 µM | [9] > 100 µM | [10] > 100 µM | [11] > 100 µM | [12] 13.4 µM | [13] 38.5 µM | [14] > 100 µM | [15] 37.2 µM | [16] 37.3 µM | [17] 29 µM

Oc1ccc(-c2nc(-c3cccnc3)c(-c3ccc(F)cc3)[nH]2)cc1
inactive: [1] 10.7 µM | [2] 24 µM | [3] 15.8 µM | [4] 17.5 µM | [5] 16 µM | [18] 18.2 µM | [6] 17.7 µM | [7] 19 µM | [8] 19 µM | [9] 17.7 µM | [10] 17.9 µM | [11] 10.2 µM | [12] 17.9 µM | [13] 25.2 µM | [14] 16.9 µM | [15] 17.4 µM | [16] 18.6 µM | [17] 16 µM

CCOC(=O)c1cc(C2CCN(c3ccccc3)C2=O)c(C(=O)/C=C(/C)N)[nH]1 (stereo not drawn)
inactive: [1] > 100 µM | [2] 54.5 µM | [3] > 100 µM | [4] 33.7 µM | [5] 68.2 µM | [18] > 100 µM | [6] 65 µM | [7] 71.4 µM | [8] 44 µM | [9] 42.5 µM | [10] 28.3 µM | [11] > 100 µM | [12] > 100 µM | [13] 21.3 µM | [14] > 100 µM | [15] 32.8 µM | [16] 28.2 µM | [17] 16.2 µM

CC1=CC(O)CC(C)(C)C1/C=C/C(C)=C/C=C/C(C)=C/C=C/C=C(C)/C=C/C=C(C)/C=C/C1=C(C)CC(O)CC1(C)C (stereo not drawn)
inactive: [1] 26.2 µM | [2] 7.43 µM | [3] 51.6 µM | [4] 26.5 µM | [5] 38.3 µM | [18] 38.6 µM | [6] 13.8 µM | [7] 18.7 µM | [8] 24.5 µM | [9] 28.8 µM | [10] 19.7 µM | [11] 28.2 µM | [12] 25 µM | [13] 53.2 µM | [14] 15.7 µM | [15] 20 µM | [16] 57.8 µM | [17] 15 µM

CCOC(=O)c1ccc(NCC#CCN2CCCCC2)cc1
inactive: [1] 19.7 µM | [2] > 100 µM | [3] 60.1 µM | [4] > 100 µM | [5] 26.8 µM | [18] > 100 µM | [6] 59.2 µM | [7] 60.4 µM | [8] > 100 µM | [9] > 100 µM | [11] > 100 µM | [19] > 100 µM | [12] > 100 µM | [13] > 100 µM | [14] > 100 µM | [15] > 100 µM | [17] 50.1 µM

O=CC1OC(=O)c2cc(O)c(O)c(O)c2-c2c(cc(O)c(O)c2O)C(=O)OC1C1OC(=O)c2cc(O)c(O)c(O)c2-c2c(O)c(O)c3oc(=O)c4c(c(O)c(O)c5oc(=O)c2c3c54)-c2c(cc(O)c(O)c2O)C(=O)OCC1O (stereo not drawn)
inactive: [1] 24.3 µM | [2] 50.6 µM | [3] 20.9 µM | [4] 39.4 µM | [5] 26.7 µM | [18] 20.3 µM | [6] 24.5 µM | [7] 20.4 µM | [8] 36.8 µM | [9] 14.2 µM | [10] 19.3 µM | [11] 57.8 µM | [12] > 100 µM | [13] 72.3 µM | [14] 39.7 µM | [15] 43.1 µM | [17] 29.4 µM

NN/C(=N\c1ccc(Cl)cc1)NS(=O)(=O)c1ccc(S(=O)(=O)c2ccccc2)s1
inactive: [2] 21.8 µM | [3] 24.2 µM | [4] 19 µM | [5] 10.9 µM | [18] 9.79 µM | [6] 15.8 µM | [7] 13.7 µM | [8] 18.5 µM | [9] 21.1 µM | [10] 30.3 µM | [11] 21.2 µM | [19] 39.4 µM | [12] 19.1 µM | [13] 38.3 µM | [14] 16 µM | [15] 8.17 µM | [16] 26.7 µM | [17] 7.21 µM
